# Where two headings read alike, the source gives them in different places.
# Columns and labels:
# [1] = system: LL29 cells (primary human fibroblasts derived from IPF patients), α-smooth muscle actin; experiment: Inhibition of fibrotic process: αSMA in TGF-β1-treated primary human fibroblasts from IPF patients (LL29 cells); assay type: cell-based; settings: Homo sapiens, Fibroblast; for EC50: 96 h, % αSMA-positive LL29 cells, TGF-β1 20 ng/mL, 4 days
# How it was run: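 Read-out is the percentage of αSMA-positive cells by high-content imaging, excluding SYTOX green-positive dead/apoptotic cells, normalized to TGF-β1-only wells on the same plate. LL29 cells were exposed for 4 days at 37 °C to 20 ng/mL TGF-β1 plus 11-point, 2-fold compound dilutions in 0.1% DMSO.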
# [2] = system: Tau phosphorylation at Ser396 (pSer396), SH-SY5Y cells; experiment: Tau phosphorylation at Ser396 (pSer396) in SH-SY5Y cells, ELISA/western blot; assay type: cell-based, human; settings: Homo sapiens; SH-SY5Y cells, overnight (16-18 h); read-out: pSer396 Tau EC50;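 also: cell lysates probed for reduced Tau pSer396 via ELISA (colorimetric) or western blot (chemiluminescence), both with one shared pSer396 antibody, EC50 for lowering phosphorylation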
# Procedure: Two days before treatment, cells were seeded onto 96 well plates at 5×10^4 cells/well.
# Wells were visually checked for cell death or change in morphology and supernatants were tested for cytotoxicity by measurement of lactate dehydrogenase release (LDH, CytoToxOne kit, Promega) if necessary.
# Cells were lysed with RIPA buffer complemented with phosphatase and protease inhibitors then lysates were spun down at 12,000 g for 10 min to remove any cellular debris. Lysates are then either directly tested for pSer396 by ELISA (Life Technology, Kit KHB7031) or loaded on NuPage Bis-Tris gels for western blot analysis. Colorimetric detection of ELISA signal is performed by Cytation3 plate reader (Biotek) and the chemiluminescence signal for HRP-linked antibodies used in western blotting is detected using a Carestream Image Station. The same pSer396 antibody is used for detection of pTau in both assays.
# [3] = system: SW480 colon carcinoma cells; experiment: Cell viability assay (CellTiter-Glo) in SW480 cells; assay type: cell-based, human; settings: Homo sapiens; for EC50: 96 h, cell viability, SW480 cells, four days, CellTiter-Glo; for inhibition at 10 µM: SW480, read-out: percent inhibition at 10 μM;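 as to all read-outs here: SW480 cells stably carrying an Sp5-luciferase TCF/LEF reporter, luminescent ATP signal as viability measure, DMSO-treated cells as control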
# Procedure: Representative compounds were screened using the assay procedure to assess the effect on cell viability as described below.
# SW480 colon carcinoma cells were transduced with a lentiviral vector expressing luciferase with a human Sp5 promoter consisting of a sequence of eight TCF/LEF binding sites. SW480 cells stably expressing the Sp5-Luc reporter gene and a hygromycin resistance gene were selected by treatment with 150 μg/mL of hygromycin for 7 days. These stably transduced SW480 cells were expanded in cell culture and used for all further screening activities. Each compound was dissolved in DMSO as a 10 mM stock and used to prepare compound source plates.
# For the Cell Viability Assays, the cells were plated at 2,000 cells/well in 384-well plates with a DMEM medium containing 1% fetal bovine serum, and 1% Penicillin-Streptomycin and incubated for four days hours at 37° C. and 5% CO2. Eight replicates of DMSO-treated cells served as controls and cells treated with compound were performed in duplicate.
# After incubation, 10 μL of CellTiter-Glo (Promega) was added to each well allowed to incubate for approximately 12 minutes.
# Dose-response curves were generated and EC50 concentration values were calculated using non-linear regression curve fit in the GraphPad Prism (San Diego, Calif.) or Dotmatics' Studies Software (Bishops Stortford, UK).
# [4] = target: DYRK1A kinase (Homo sapiens (Human), UniProt Q13627); experiment: DYRK1A kinase assay (Ser/Thr 18 peptide Z-lyte, FRET)
# Procedure: Each compound was dissolved in DMSO as a 10 mM stock and used to prepare compound source plates.
# This is a non-radioactive assay using fluorescence resonance energy transfer (FRET) between coumarin and fluorescein to detect kinase activity which is represented as a ratio of coumarin emission/fluorescein emission.
# The mixture was allowed to incubate with the representative compounds for one hour at room temperature. All reactions were performed in duplicate. Unphosphorylated (“0% Control”) and phosphorylated (“100% control”) forms of Ser/Thr 18 served as control reactions. Additionally, an 11-point dose-response curve of Staurosporine (1 uM top) was run to serve as a positive compound control.
# After incubation, Development Reagent A was diluted in Development Buffer then added to the reaction and allowed to further incubate for one hour at room temperature.
# The percent phosphorylation was then calculated using the following formula: [1−((Em ratio×F100%)−C100%)/((C0%−C100%)+(Em ratio×(F100%−F0%)))]. Dose-response curves were generated and inhibitory concentration (IC50) values were calculated using non-linear regression curve fit in the Dotmatics' Studies Software (Bishops Stortford, UK).
# [5] = system: IL-6; experiment: IL-6 inhibition in LPS-stimulated human peripheral blood mononuclear cells (HTRF); assay type: cell-based; settings: Homo sapiens, PBMC; for EC50: IL-6, LPS-stimulated huPBMCs, HTRF
# How it was run: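 EC50 from a 4-parameter fit of DMSO-normalized HTRF (665/620 nm) IL-6 signal, duplicates. Compound was added to fresh human PBMCs in 1% FBS RPMI for 2 h (top 10 μM, 3-fold, 0.25% DMSO) before 22 h stimulation with LPS at 50 ng/mL, 37 °C.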
# [6] = target: GSK3β kinase (Homo sapiens (Human), UniProt P49841); experiment: GSK3β kinase assay (Ser/Thr 09 peptide Z-lyte, FRET); assay type: biochemical; settings: method text calls the value IC50;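 also: Coumarin/fluorescein emission ratio converted to percent phosphorylation against unphosphorylated (0%) and phosphorylated (100%) controls, 1 h compound incubation at room temperature, 11-point threefold dilutions from 10 µM, run in duplicate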
# GSK3β kinase, sequence (P49841 whole entry): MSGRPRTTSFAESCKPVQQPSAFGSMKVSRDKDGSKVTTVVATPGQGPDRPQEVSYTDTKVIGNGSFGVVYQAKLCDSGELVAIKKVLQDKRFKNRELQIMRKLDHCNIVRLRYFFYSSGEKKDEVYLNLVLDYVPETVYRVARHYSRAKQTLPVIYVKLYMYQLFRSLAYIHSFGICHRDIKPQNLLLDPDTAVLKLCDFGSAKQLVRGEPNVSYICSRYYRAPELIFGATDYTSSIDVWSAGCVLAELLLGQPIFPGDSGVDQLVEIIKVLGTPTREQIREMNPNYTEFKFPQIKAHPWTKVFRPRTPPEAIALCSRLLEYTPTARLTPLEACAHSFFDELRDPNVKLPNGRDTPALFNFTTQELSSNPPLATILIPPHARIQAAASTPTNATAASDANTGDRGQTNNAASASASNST
# [7] = system: Wnt activity (Sp5-Luc reporter in SW480 colon carcinoma cells); experiment: Wnt activity screening assay (Sp5-Luc reporter gene assay); assay type: cell-based, human; settings: Homo sapiens; for EC50: Sp5-Luc reporter, SW480 cells, 36 to 48 hours; for inhibition at 10 µM: SW480, read-out: percent inhibition at 10 μM
# How it was run: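 Compounds at 10 points (1:3 steps, top 10 μM, 0.1% DMSO final) were incubated 36 to 48 h at 37° C with stable Sp5-Luc SW480 reporter cells in 1% FBS medium. Luciferase luminescence was then read and expressed relative to DMSO-only cells. Four-parameter variable-slope fitting yielded EC50 values.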
# [8] = DYRK1A kinase, method text calls the value IC50
Compound,EC50 [1],EC50 [2],EC50 [3],EC50 [4],EC50 [5],EC50 [6],EC50 [7],inhibition at 10 µM ([1]; read-out: percent inhibition at 10 μM),inhibition at 10 µM [3],"EC50 [4, 8]",inhibition at 10 µM ([5]; read-out: percent value in parentheses below EC50 >10),inhibition at 10 µM [7]
"[2H]C([2H])([2H])Oc1ccc(C(=O)Nc2cc3cc(-c4cncn4C)ccc3cn2)cc1 [Compound 87, 4-(Methoxy-d3)-N-(6-(1-methyl-1H-imidazol-5-yl)isoquinolin-3-yl) benzamide]",132 nM,896 nM,489 nM,3 nM,1170 nM,1450 nM,214 nM,,,,,
"[2H]c1c([2H])c(C(=O)Nc2cc3cc(-c4cncn4C)ccc3cn2)c([2H])c([2H])c1OC([2H])([2H])[2H] [Compound 88, 4-(Methoxy-d3)-N-(6-(1-methyl-1H-imidazol-5-yl)isoquinolin-3-yl) benzamide-2,3,5,6-d4]",311 nM,16 nM,480 nM,2 nM,1200 nM,1010 nM,179 nM,,,,,
"[2H]c1c([2H])c(C(=O)Nc2cc3cc(-c4cncn4C)ccc3cn2)c([2H])c([2H])c1OC [Compound 89, 4-Methoxy-N-(6-(1-methyl-1H-imidazol-5-yl)isoquinolin-3-yl)benzamide-2,3,5,6-d4]",190 nM,594 nM,480 nM,2 nM,1050 nM,533 nM,155 nM,,,,,
"[2H]c1c([2H])c([2H])c(/C=C/C(=O)Nc2cc3cc(-c4cnc(C)n4C)ccc3cn2)c([2H])c1[2H] [Compound 90, (E)-N-(6-(1,2-Dimethyl-1H-imidazol-5-yl)isoquinolin-3-yl)-3-(phenyl-2,3,4,5,6-d5)acrylamide]",299 nM,171 nM,312 nM,4 nM,606 nM,388 nM,159 nM,,,,,
"[2H]/C(C(=O)Nc1cc2cc(-c3cnc(C)n3C)ccc2cn1)=C(/[2H])c1c([2H])c([2H])c([2H])c([2H])c1[2H] [Compound 91, (E)-N-(6-(1,2-Dimethyl-1H-imidazol-5-yl)isoquinolin-3-yl)-3-(phenyl-2,3,4,5,6-d5)acrylamide-2,3-d2]",289 nM,68 nM,314 nM,5 nM,679 nM,454 nM,197 nM,,,,,
"[2H]C([2H])(C(=O)Nc1cc2cc(-c3cnc(C)n3C)ccc2cn1)c1ccc(F)cc1 [Compound 92, N-(6-(1,2-Dimethyl-1H-imidazol-5-yl)isoquinolin-3-yl)-2-(4-fluorophenyl) acetamide-2,2-d2]",2710 nM,769 nM,4080 nM,10 nM,3180 nM,66 nM,3140 nM,,,,,
"[2H]c1c([2H])c([2H])c(/C=C/C(=O)Nc2cc3cc(-c4cncn4C)ccc3cn2)c([2H])c1[2H] [Compound 93, (E)-N-(6-(1-methyl-1H-imidazol-5-yl)isoquinolin-3-yl)-3-(phenyl-2,3,4,5,6-d5)acrylamide]",145 nM,259 nM,98 nM,2 nM,280 nM,238 nM,67 nM,,,,,
"[2H]/C(C(=O)Nc1cc2cc(-c3cncn3C)ccc2cn1)=C(/[2H])c1c([2H])c([2H])c([2H])c([2H])c1[2H] [Compound 94, (E)-N-(6-(1-Methyl-1H-imidazol-5-yl)isoquinolin-3-yl)-3-(phenyl-2,3,4,5,6-d5)acrylamide-2,3-d2]",125 nM,244 nM,104 nM,2 nM,319 nM,276 nM,88 nM,,,,,
"[2H]C([2H])(C(=O)Nc1cc2cc(-c3cncn3C)ccc2cn1)c1ccc(F)cc1 [Compound 95, 2-(4-Fluorophenyl)-N-(6-(1-methyl-1H-imidazol-5-yl)isoquinolin-3-yl) acetamide-2,2-d2]",276 nM,76 nM,766 nM,4 nM,339 nM,38 nM,1070 nM,,,,,
"Cn1cc(-c2cc(F)c3cnc(NC(=O)[C@H]4CC[C@@H](N(C)C)CC4)cc3c2)cn1 [Compound 96, cis-4-(Dimethylamino)-N-(8-fluoro-6-(1-methyl-1H-pyrazol-4-yl)isoquinolin-3-yl)cyclohexane-1-carboxamide]",> 10000 nM,> 10000 nM,> 10000 nM,,> 10000 nM,5420 nM,> 10000 nM,36%,2.3%,846 nM,3.6%,0%
"Cn1cc(-c2cc(F)c3cnc(NC(=O)[C@H]4CC[C@@H](N5CCOCC5)CC4)cc3c2)cn1 [Compound 97, cis-N-(8-Fluoro-6-(1-methyl-1H-pyrazol-4-yl)isoquinolin-3-yl)-4-morpholinocyclohexane-1-carboxamide]",200 nM,184 nM,806 nM,,365 nM,20 nM,1470 nM,,,14 nM,,
"Cn1cc(-c2ccc3cnc(NC(=O)[C@H]4CC[C@H](N5CCCC5)CC4)cc3c2)nn1 [Compound 99, trans-N-(6-(1-Methyl-1H-1,2,3-triazol-4-yl)isoquinolin-3-yl)-4-(pyrrolidin-1-yl)cyclohexane-1-carboxamide]",72 nM,208 nM,1080 nM,,1360 nM,8 nM,589 nM,,,4 nM,,
"Cn1cc(-c2ccc3cnc(NC(=O)[C@H]4CC[C@H](N5CCOCC5)CC4)cc3c2)nn1 [Compound 100, trans-N-(6-(1-Methyl-1H-1,2,3-triazol-4-yl)isoquinolin-3-yl)-4-morpholinocyclohexane-1-carboxamide]",64 nM,113 nM,1530 nM,,2020 nM,11 nM,720 nM,,,3 nM,,
"Cc1ncc(-c2cc(F)c3cnc(NC(=O)[C@H]4CC[C@H](C(=O)N5CCN(C)CC5)CC4)cc3c2)o1 [Compound 101, trans-N-(8-fluoro-6-(2-methyloxazol-5-yl)isoquinolin-3-yl)-4-(4-methylpiperazine-1-carbonyl)cyclohexane-1-carboxamide]",3070 nM,5400 nM,> 10000 nM,,3590 nM,1030 nM,> 10000 nM,,18.8%,22 nM,,6.3%
"CN1CCN(C(=O)[C@H]2CC[C@H](C(=O)Nc3cc4cc(-c5cnn(C)c5)cc(F)c4cn3)CC2)CC1 [Compound 102, trans-N-(8-Fluoro-6-(1-methyl-1H-pyrazol-4-yl)isoquinolin-3-yl)-4-(4-methylpiperazine-1-carbonyl)cyclohexane-1-carboxamide]",2400 nM,2600 nM,3030 nM,,2920 nM,434 nM,3250 nM,,,5 nM,,
"Cn1cc(-c2cc(F)c3cnc(NC(=O)[C@H]4CC[C@H](NCC(F)F)CC4)cc3c2)cn1 [Compound 103, trans-4-((2,2-Difluoroethyl)amino)-N-(8-fluoro-6-(1-methyl-1H-pyrazol-4-yl)isoquinolin-3-yl)cyclohexane-1-carboxamide]",392 nM,1300 nM,6080 nM,,1080 nM,30 nM,2970 nM,,,5 nM,,
"Cc1ncc(-c2ccc3cnc(NC(=O)[C@H]4CC[C@H](NCC(F)F)CC4)cc3c2)o1 [Compound 104, trans-4-((2,2-Difluoroethyl)amino)-N-(6-(2-methyloxazol-5-yl)isoquinolin-3-yl)cyclohexane-1-carboxamide]",220 nM,712 nM,4590 nM,,1140 nM,149 nM,3600 nM,,,8 nM,,
"COCCN[C@H]1CC[C@H](C(=O)Nc2cc3cc(-c4cnn(C)c4)cc(F)c3cn2)CC1 [Compound 105, trans-N-(8-Fluoro-6-(1-methyl-1H-pyrazol-4-yl)isoquinolin-3-yl)-4-((2-methoxyethyl)amino)cyclohexane-1-carboxamide]",812 nM,2200 nM,> 10000 nM,,1570 nM,550 nM,> 10000 nM,,16.9%,34 nM,,15.8%
